The text below walks through data of patent publication US7317037B2, “Progesterone receptor modulators comprising pyrrole-oxindole derivatives and uses thereof” (Wyeth, priority 2004, dated 2008).

This test has as its target T1, progesterone receptor (PR) (Homo sapiens, UniProt P06401).
T1 construct: Effects of Progestins and Antiprogestins on Alkaline Phosphatase Activity in T47D Cells; endogenous in cells; host or cells: T47D cells
T1 sequence (P06401 1-933): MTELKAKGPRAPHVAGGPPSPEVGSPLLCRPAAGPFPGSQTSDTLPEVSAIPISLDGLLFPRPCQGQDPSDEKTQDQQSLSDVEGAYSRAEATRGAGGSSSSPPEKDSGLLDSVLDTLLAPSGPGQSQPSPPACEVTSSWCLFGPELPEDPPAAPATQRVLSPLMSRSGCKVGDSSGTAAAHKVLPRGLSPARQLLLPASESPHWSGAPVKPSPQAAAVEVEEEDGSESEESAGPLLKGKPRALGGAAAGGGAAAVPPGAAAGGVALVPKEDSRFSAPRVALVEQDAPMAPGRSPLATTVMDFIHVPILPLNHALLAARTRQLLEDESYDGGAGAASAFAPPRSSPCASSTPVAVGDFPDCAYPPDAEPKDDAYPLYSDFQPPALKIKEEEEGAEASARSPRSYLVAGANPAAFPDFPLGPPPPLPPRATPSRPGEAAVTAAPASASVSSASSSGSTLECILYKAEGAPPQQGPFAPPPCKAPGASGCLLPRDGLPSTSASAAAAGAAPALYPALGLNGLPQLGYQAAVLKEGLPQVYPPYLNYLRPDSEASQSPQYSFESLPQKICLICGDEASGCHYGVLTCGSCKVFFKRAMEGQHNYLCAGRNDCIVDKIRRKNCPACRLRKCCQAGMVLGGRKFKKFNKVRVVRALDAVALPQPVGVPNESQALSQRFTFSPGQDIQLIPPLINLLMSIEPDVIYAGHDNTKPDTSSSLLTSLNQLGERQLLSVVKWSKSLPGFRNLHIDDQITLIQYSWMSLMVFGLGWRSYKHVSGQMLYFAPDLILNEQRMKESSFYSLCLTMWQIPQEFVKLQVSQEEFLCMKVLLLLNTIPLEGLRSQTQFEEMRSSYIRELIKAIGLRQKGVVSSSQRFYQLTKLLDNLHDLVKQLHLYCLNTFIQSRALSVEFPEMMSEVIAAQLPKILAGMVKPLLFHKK
Kind of test: T47D cell alkaline phosphatase assay (antagonist mode). It counts as cell-based. To be noted: T47D cells, antagonist mode in the presence of 1 nM progesterone, 24 hours; read-out: IC50 (nM), T47D Cell Alkaline Phosphatase Assay. The method, then:
A. Effects of Progestins and Antiprogestins on Alkaline Phosphatase Activity in T47D Cells (T47D Alkaline Phosphatase Assay)
Culture medium: DMEM:F12 (1:1) (GIBCO, BRL) supplemented with 5% (v/v) charcoal stripped fetal bovine serum (not heat-inactivated), 100 U/mL penicillin, 100 μg/mL streptomycin, and 2 mM GlutaMax (GIBCO, BRL).
Alkaline phosphatase assay buffer: I. 0.1M Tris-HCl, pH 9.8, containing 0.2% Triton X-100, 0.1M Tris-HCl, pH 9.8, containing 4 mM p-nitrophenyl phosphate (Sigma).
2. Cell Culture and Treatment:
Frozen T47D cells are thawed in a 37° C. water bath and diluted to 280,000 cells/mL in culture medium. To each well in a 96-well plate (Falcon, Becton Dickinson Labware), 180 μl of diluted cell suspension is added. Twenty μl of reference or test compounds diluted in the culture medium is then added to each well. When testing for progestin antagonist activity, reference antiprogestins or test compounds are added in the presence of 1 nM progesterone. The cells are incubated at 37° C. in a 5% CO2 humidified atmosphere for 24 hours. For high throughput screening, one concentration of each compound will be tested at 0.3 μg/mL. Based on an average molecular weight of 300 g/mol for the compounds in the library, the concentration is approximately 1 μM. Subsequently, active compounds will be tested in dose response assays to determine EC50 and IC50.
3. Alkaline Phosphatase Enzyme Assay:
At the end of treatment, the medium is removed from the plate. Fifty μl of assay buffer I is added to each well. The plates are shaken in a titer plate shaker for 15 min. Then 150 μl of assay buffer II is added to each well. Optical density measurements are taken at 5 min intervals for 30 min at a test wavelength of 405 nm.
4. Analysis of Dose-Response Data.
For reference and test compounds, a dose response curve is generated for dose vs. the rate of enzyme reaction (slope). Square root-transformed data are used for analysis of variance and nonlinear dose response curve fitting for both agonist and antagonist modes. Huber weighting is used to down-weight the effects of outliers. EC50 or IC50 values are calculated from the retransformed values. JMP software (SAS Institute, Inc.) is used for both one-way analysis of variance and non-4 linear dose response analysis in both single dose and dose response studies.
Progesterone and trimegestone are reference progestins and RU486 is the reference antiprogestin. All reference compounds are run in full dose response curves and the EC50 and IC50 values are calculated.

As to `CN1C(=O)C(C)(C)c2cc(-c3ccc(C#N)n3C)cc(F)c21` [5-(7-Fluoro-1,3,3-trimethyl-2-oxo-2,3-dihydro-1H-indol-5-yl)-1-methyl-1H-pyrrole-2-carbonitrile], the half-inhibitory concentration (IC50) came out at 22.3 nM. In the case of `C=CCN1C(=O)C(C)(C)c2cc(-c3ccc(C#N)n3C)cc(F)c21` [5-(1-allyl-7-fluoro-3,3-dimethyl-2-oxo-2,3-dihydro-1H-indol-5-yl)-1-methyl-1H-pyrrole-2-carbonitrile] it was 4.5 nM. Consider `CC(C)CN1C(=O)C(C)(C)c2cc(-c3ccc(C#N)n3C)cc(F)c21` [5-(7-fluoro-1-isobutyl-3,3-dimethyl-2-oxo-2,3-dihydro-1H-indol-5-yl)-1-methyl-1H-pyrrole-2-carbonitrile], for which the IC50 amounted to 29.9 nM. Turning to `Cn1c(C#N)ccc1-c1cc(F)c2c(c1)C1(CC1)C(=O)N2` [5-(7′-fluoro-2′-oxo-1′,2′-dihydrospiro[cyclopropane-1,3′-indol]-5′-yl)-1-methyl-1H-pyrrole-2-carbonitrile], the concentration for half-maximal inhibition (IC50) is 10.8 nM. The same measure for `CCCN1C(=O)C(C)(C)c2cc(-c3ccc(C#N)n3C)cc(F)c21` [5-(7-fluoro-3,3-dimethyl-2-oxo-1-propyl-2,3-dihydro-1H-indol-5-yl)-1-methyl-1H-pyrrole-2-carbonitrile]: 26.5 nM. The same measure for `Cn1c(C#N)ccc1-c1cc(F)c2c(c1)CC(=O)N2` [5-(7-fluoro-2-oxo-2,3-dihydro-1H-indol-5-yl)-1-methyl-1H-pyrrole-2-carbonitrile]: 109 nM; for `Cn1c(C#N)ccc1-c1ccc2c(c1F)C(C)(C)C(=O)N2` [5-(4-fluoro-3,3-dimethyl-2-oxo-2,3-dihydro-1H-indol-5-yl)-1-methyl-1H-pyrrole-2-carbonitrile]: 30 nM. The same measure for `C#CCN1C(=O)C(C)(C)c2cc(-c3ccc(C#N)n3C)cc(F)c21` [5-(7-fluoro-3,3-dimethyl-2-oxo-1-prop-2-yn-1-yl-2,3-dihydro-1H-indol-5-yl)-1-methyl-1H-pyrrole-2-carbonitrile]: 30 nM; for `Cn1c(C#N)ccc1-c1cc(F)c2c(c1)C1(CCCC1)C(=O)N2` [5-(7′-fluoro-2′-oxo-1′,2′-dihydrospiro[cyclopentane-1,3′-indol]-5′-yl)-1-methyl-1H-pyrrole-2-carbonitrile]: 3.2 nM. Regarding `COC(=O)CN1C(=O)C(C)(C)c2cc(-c3ccc(C#N)n3C)cc(F)c21` [methyl [5-(5-cyano-1-methyl-1H-pyrrol-2-yl)-7-fluoro-3,3-dimethyl-2-oxo-2,3-dihydro-1H-indol-1-yl]acetate], the IC50 came to 48 nM. The same measure for `CC1(C)C(=O)Nc2c(F)cc(-c3ccc(C#N)[nH]3)cc21` [5-(7-fluoro-3,3-dimethyl-2-oxo-2,3-dihydro-1H-indol-5-yl)-1H-pyrrole-2-carbonitrile]: 107 nM; for `Cn1c(C#N)ccc1-c1cc(F)c2c(c1)C1(CCC1)C(=O)N2` [5-(7′-fluoro-2′-oxo-1′,2′-dihydrospiro[cyclobutane-1,3′-indol]-5′-yl)-1-methyl-1H-pyrrole-2-carbonitrile]: 2.75 nM; for `CCC1(CC)C(=O)Nc2c(F)cc(-c3ccc(C#N)n3C)cc21` [5-(3,3-diethyl-7-fluoro-2-oxo-2,3-dihydro-1H-indol-5-yl)-1-methyl-1H-pyrrole-2-carbonitrile]: 4.95 nM. Consider `Cn1c(C#N)ccc1-c1cc(F)c2c(c1)C(C)(C)C(=O)N2CCc1ccccc1` [5-[7-fluoro-3,3-dimethyl-2-oxo-1-(2-phenylethyl)-2,3-dihydro-1H-indol-5-yl]-1-methyl-1H-pyrrole-2-carbonitrile], for which the half-inhibitory concentration (IC50) turned out to be 351 nM. In the case of `CC(C)(C)OC(=O)n1c(C#N)ccc1-c1cc(F)c2c(c1)C(C)(C)C(=O)N2` [tert-butyl 2-cyano-5-(7-fluoro-3,3-dimethyl-2-oxo-2,3-dihydro-1H-indol-5-yl)-1H-pyrrole-1-carboxylate] it was 125 nM. In the case of `Cn1c(C#N)ccc1-c1cc(F)c2c(c1)C(C)(C)C(=O)N2C1CCCC1` [5-(1-cyclopentyl-7-fluoro-3,3-dimethyl-2-oxo-2,3-dihydro-1H-indol-5-yl)-1-methyl-1H-pyrrole-2-carbonitrile] it was 25.2 nM. The same measure for `Cn1c(C#N)ccc1-c1cc(F)c2c(c1)C(C)(C)C(=O)N2C1CCCCC1` [5-(1-cyclohexyl-7-fluoro-3,3-dimethyl-2-oxo-2,3-dihydro-1H-indol-5-yl)-1-methyl-1H-pyrrole-2-carbonitrile]: 194 nM; for `Cn1c(C#N)ccc1-c1ccc2c(c1F)C1(CC1)C(=O)N2` [5-(4′-fluoro-2′-oxo-1′,2′-dihydrospiro[cyclopropane-1,3′-indol]-5′yl)-1-methyl-1H-pyrrole-2-carbonitrile]: 7.8 nM; for `Cn1c(C#N)ccc1-c1cc(F)c2c(c1)C(C)(C)C(=O)N2Cc1ccccc1` [5-(1-benzyl-7-fluoro-3,3-dimethyl-2-oxo-2,3-dihydro-1H-indol-5-yl)-1-methyl-1H-pyrrole-2-carbonitrile]: 164 nM. In the case of `CCN1C(=O)C(C)(C)c2cc(-c3ccc(C#N)n3C)cc(F)c21` [5-(1-ethyl-7-fluoro-3,3-dimethyl-2-oxo-2,3-dihydro-1H-indol-5-yl)-1-methyl-1H-pyrrole-2-carbonitrile], the half-maximal inhibitory concentration (IC50) amounted to 29.5 nM.

For `CC(C)N1C(=O)C(C)(C)c2cc(-c3ccc(C#N)n3C)cc(F)c21` [5-(7-fluoro-1-isopropyl-3,3-dimethyl-2-oxo-2,3-dihydro-1H-indol-5-yl)-1-methyl-1H-pyrrole-2-carbonitrile], the IC50 came out at 13 nM.

As a reminder, the IC50 is the concentration that gives 50% inhibition.
